In patent US5440041A, “Acetal or ketal substituted xanthine compounds” (Cell Therapeutics, Inc., priority 1994, dated 1995):
Read-outs that look alike come from different tables or passages of the source.

Experiments:
human stromal cells = assay: Stromal cell proliferation stimulated by PDGF; type: cell-based; details: for IC50: Homo sapiens; for inhibition of proliferation of human stromal cells stimulated with PDGF: in words
Procedure: Another assay for measuring activity of the inventive compounds involves determining PDGF (platelet derived growth factor) proliferative response using human-derived stromal cells. […] Two to three days later, the stromal cells are starved in serum-free media. Twenty four hours later, the cells are treated with a stimulating agent, such as PDGF-AA, PDGF-BB or basic FGF (fibroblast growth factor) with or without IL-1α or TNF, and tritiated thymidine. Cell proliferation is determined by liquid scintillation counting.
This assay is a model for restenosis and treatment of atherosclerosis and coronary artery disease. Stromal cells were starved in serum-free media for 24 hrs and then stimulated with PDGF-BB (50 ng/ml). The drugs were added at various concentrations one hour prior to PDGF stimulation. Tritiated thymidine was added for 24 hrs at the time of PDGF stimulation and proliferation determined by harvesting and counting the cells by liquid scintillation 24 hrs later.

293-EBNA cells = assay: Reporter gene expression (CMV promoter, secreted placental alkaline phosphatase) in tumor cells; type: cell-based; details: compared with CT1501R, CT1567 and CT1590; absorbance at 405 nm; FIG. 7
Text: FIG. 7 illustrates the effects of CT1590 (racemate N-(5,6-[…]) theobromine), CT1573, CT1567 and CT1501R (an alcohol-substituted xanthine) on cell proliferation as a measure of antitumor activity and the ability of each drug to inhibit gene expression in tumor cells. A specific plasmid construct employing a human CMV (cytomegalovirus) promoter directs the expression of a reporter gene (secreted human placental alkaline phosphatase) that was transformed into the tumor cell line 293-EBNA cells. The cells were treated with various concentrations of drug. Antitumor activity was measured in culture supernatants by expression of alkaline phasphatase reporter gene by absorbance at 405 nm of cell conditioned medium in the presence of substrate (e.g., ortho-nitrophenol phosphate) as described in Berger et al. (Gene 66:1-10, 1988).
This example illustrates the effects of CT1590 (racemate N-(5,6-ethylenedioxyhexyl) theobromine), CT1573, CT1567 and CT1501R (an alcohol-substituted xanthine) on cell proliferation as a measure of antitumor activity and the ability of each drug to inhibit gene expression in tumor cells. A specific plasmid construct employing a human CMV (cytomegalovirus) promoter directs the expression of a reporter gene (secreted human placental alkaline phosphatase) that was transformed into the tumor cell line 293-EBNA cells. […]

VCAM = assay: Cell surface expression of VCAM in TNF-α-stimulated HUVEC (flow cytometry); type: cell-based, human; details: TNF-α (20 ng/ml) for 20 hrs; mean fluorescence intensity; FIG. 6
Procedure: Drug inhibitory activity can also be measured by determining levels of vascular cell adhesion molecule (VCAM) in stimulated cells. Early passage human umbilical vein endothelial cells (HUVEC) (obtained from commercial suppliers such as Cell Systems, Inc. or Clonetics) are cultured in media (e.g., Hepes buffered media, Cell Systems) containing 10% fetal bovine serum, and supplemented with a stimulating agent, such as fibroblast growth factor (acidic FGF, Cell Systems, Inc.) or TNF. The cells are plated into wells of a microliter plate (e.g., 5×10^4 per well) and allowed to incubate at 37° C. for 72 hrs. […] After 30 min on ice, the cells are washed twice and analyzed on a flow cytometer (Coulter Elite®) at appropriate emission and excitation wavelengths (e.g., for phycoerythrin use excitation at 488 nm and emission at […]).
The cells were stimulated with TNF-α(20 ng/ml) for 20 hrs and then stained for immunofluorescence using a monoclonal antibody recognizing VCAM, followed by a goat anti-mouse antibody conjugated to phycoerythrin. The cells were analyzed for antibody binding using flow cytometry.

[1] = tested on: adhesion of U937 cells to activated human umbilical vein endothelial cells (HUVEC); assay: Adhesion of U937 cells to TNF-activated HUVEC; type: cell-based; details: HUVEC activated with 20 ng/ml human TNF for 12 hours; drug one hour prior to TNF; FIG. 5
Procedure: Another assay measures the effects of drug to inhibit adhesion of U937 cells to TNF-activated HUVEC cells In this experiment, HUVEC cells are induced with human TNF-α (20 ng/ml) and drug at varying concentrations for 14-16 hrs. U937 cells (a human monocyte cell line) are incubated and labeled with BCECF (10 μg/ml), a fluorescent dye. The U937 cell preparation (2.5×10^4 cells per well) is layered on top of the activated HUVEC cells. The cells are reverse spun to remove partially adhering and nonadhering U937 cell. The adherent U937 cells are measured by fluorescence on a fluorescent plate reader.
This example illustrates the effect of CT1573 to inhibit adhesion of U937 cells to activated human umbilical vein endothelial cells (HUVEC). HUVEC cells (4000/well, seeded 72 hrs in advance) were activated with 20 ng/ml of human TNF for 12 hours. CT1573 was added to the samples one hour prior to adding TNF. U937 cells were preloaded with a fluorescent dye (BCECF) were added to the HUVEC cells in each well for 30 min, the cells washed twice with PBS and adhesion measured after washing. Adhesion was measured on a fluorescence plate reader. Background adhesion of U937 cells to non-activated HUVEC is shown as a dashed line.

[2] = tested on: PBMC (peripheral blood mononuclear cells); assay: Two-way mixed lymphocyte reaction (MLR); type: cell-based, human; details: FIG. 1, FIG. 8
Text: Various in vitro assays can be used to measure effects of the inventive compounds to modulate immune activity and have antitumor activity using a variety of cellular types. For example, a mixed lymphocyte reaction (MLR) provides a valuable screening tool to determine biological activity of each inventive compound. In the MLR, PBMCs (peripheral blood mononuclear cells) are obtained by drawing whole blood from healthy volunteers in a heparinized container and diluted with an equal volume of hanks balanced salt solution (HBSS). This mixture is layered on a sucrose density gradient, such as a Ficoll-Hypaque® gradient (specific gravity 1.08), and centrifuged at 1000×g for 25 minutes at room temperature or cooler. PBMC are obtained from a band at a plasma-Ficoll interface, separated and washed at least twice in a saline solution, such as HBSS. Contaminating red cells are lysed, such as by ACK lysis for 10 min at 37° C., and the PBMCs are washed twice in HBSS. The pellet of purified PBMCs is resuspended in complete medium, such as RPMI 1640 plus 20% human inactivated serum. Proliferative response of PBMC to allogeneic stimulation is determined in a two-way MLR performed in a 96-well microtiter plate. […] At the conclusion of the incubation tritiated thymidine is added (for example, 1 μCi/well of 40 to 60 Ci/mmole) and proliferation determined by liquid scintillation counting. […]

thymocyte [3] = assay: Thymocyte proliferation stimulated by ConA and IL-1α; type: cell-based, mice (Balb/C); details: drug added two hours prior to activation; FIG. 2
Procedure: (§1) A thymocyte costimulator assay is conducted to evaluate the inventive compounds to inhibit activation and proliferation of thymocytes caused by stimulation with Con A and interleukin-1 (IL-1), or interleukin-2 (IL-2). Thymuses are obtained from mice (e.g., female Balb/C mice) and the thymuses are removed and dissociated into culture media (e.g., RPMI 1640 without serum supplementation). The dissociated thymus tissue and cell suspension is transferred to centrifuge tubes and allowed to settle, washed with HBSS and resuspended in serum-supplemented culture media (e.g., RPMI 1640 with 10% fetal calf serum). Any contaminating red cells are lysed, and viable cells are resuspended and counted. Thymocytes are plated (e.g., 96-well plates at a density of 2×10^5 cells/well) and a stimulating agent, such as Con A, IL-1 (e.g., IL-1α) or IL-2 is added to the well. The cells are incubated for 4 days at 37° C. On the fourth day, the cells are pulsed with tritiated thymidine and cell proliferation determined. […]
(§2) Thymuses were obtained from normal, female Balb/C mice, dissociated, and plated into 96-well plates at a density of 2×10^5 cells/well. ConA and IL-1α were added to the wells and the cells were incubated for 4 days at 37° C. […] The cells were harvested and incorporated tritiated thymidine was determined in a liquid scintillation counter. […]

thymocyte [4] = assay: Thymocyte proliferation stimulated by ConA and IL-2; type: cell-based, mice (Balb/C); details: drug added two hours prior to activation; FIG. 3
Procedure: as §1, §2

[5] = tested on: polymorphonuclear leukocytes; details: in response to a stimulator of chemotaxis; U.S. Pat. No. 4,636,507; cited from earlier work
[6] = U.S. Pat. Nos. 4,515,795 and 4,576,947; cited from earlier work
[7] = PDGF BB and IL-1α, FIG. 4, FIG. 9, read-out: IC50 to inhibit stromal cell proliferation stimulated by PDGF BB and IL-1α

Row | Compound | IC50 (human stromal cells; [7]) [µM] | inhibition of proliferation of human stromal cells stimulated with PDGF (human stromal cells) | inhibition of cell surface expression of VCAM in HUVEC cells (VCAM) | activity in mixed lymphocyte reaction (proliferative response of PBMC to allogeneic stimulation) [2] | also measured
1 | Cn1cnc2c1c(=O)n(CCCCCCCCC1COCO1)c(=O)n2C (racemic) [CT1573, N-(9,10-methylenedioxydecyl)-3,7-dimethylxanthine] | < 100 | strongly inhibit proliferation | inhibit cell surface expression of VCAM | – | IC50 (human stromal cells; 1 h, PDGF-BB (50 ng/ml), drug one hour prior to stimulation, FIG. 4, read-out: IC50 to inhibit stromal cell proliferation stimulated by PDGF BB): < 100 µM; inhibition of gene expression in tumor cells (antitumor activity) (293-EBNA cells): strongly inhibited gene expression; inhibition of adhesion of U937 cells to activated HUVEC [1]: reduced adhesion in a dose-dependent manner
2 | Cn1cnc2c1c(=O)n(CCCCC1COCO1)c(=O)n2C (racemic) [CT1590, N-(5,6-methylenedioxyhexyl)-3,7-dimethylxanthine] | ~100 | strongly inhibit proliferation | – | showed activity | –
3 | Cn1cnc2c1c(=O)n(CCCCCC1OCCO1)c(=O)n2C [CT1567] | – | – | inhibit cell surface expression of VCAM | showed activity | inhibition of thymocyte proliferation stimulated by ConA and IL-1α (thymocyte [3]): inhibited thymocyte proliferation in a dose-response manner; inhibition of thymocyte proliferation stimulated by ConA and IL-2 (thymocyte [4]): inhibited thymocyte proliferation at the highest dose tested
4 | CC(O)CCCCn1c(=O)c2c(ncn2C)n(C)c1=O (stereo not drawn) [M1, 1-(5-hydroxyhexyl)-3,7-dimethylxanthine] | – | – | – | – | effect on chemotaxis in polymorphonuclear leukocytes [5]: stimulate chemotaxis; effect on cerebral blood flow [6]: increasing cerebral blood flow
